One assay deals with T1, PARG (Homo sapiens, UniProt Q86W56).
T1 construct: made in house
The assay is described as follows: Enzymatic inhibitory activity against PARG, HTRF assay. The format is biochemical. To be noted: HTRF; PARylated PARP1 protein as substrate; 60 minutes at room temperature; read-out: IC50 against PARG enzyme. Summed up: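 Purified PARG pre-incubated with compounds (top 10 µM, 3- to 5-fold dilutions, duplicates) 15 min at room temperature, then PARylated PARP1 substrate added for 60 min in Tris pH 7.4 buffer with DTT, EDTA/EGTA, KCl. HTRF (His-Tb/SA-XL665) read-out; IC50 by four-parameter logistic fit, normalised to DMSO and control-inhibitor wells.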

The next assay relates to KURAMOCHI cells. Nature of the assay: Inhibition of proliferation of KURAMOCHI cells (CellTiter-Glo, intracellular ATP). The format is cell-based. To be noted: 168 h, incubated for 7 days, read-out: IC50 against KURAMOCHI cells. In outline:
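KURAMOCHI cells seeded at 4000/well, incubated overnight, then treated with 9-point 1:4 compound series from 10 µM (0.5% DMSO) for 7 days at 37°C, 5% CO2. Viability read by CellTiter-Glo luminescence; inhibition normalised to medium-only (100%) and DMSO (0%) controls, IC50 from variable-slope four-parameter fit.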
In general terms: Cellular ATP, detected with luciferase, serves as a proxy for viable cell number.

For orientation: IC50 means the concentration at which inhibition is half-maximal.

SMILES strings stand for the structures.

T1 sequence (Q86W56 whole entry): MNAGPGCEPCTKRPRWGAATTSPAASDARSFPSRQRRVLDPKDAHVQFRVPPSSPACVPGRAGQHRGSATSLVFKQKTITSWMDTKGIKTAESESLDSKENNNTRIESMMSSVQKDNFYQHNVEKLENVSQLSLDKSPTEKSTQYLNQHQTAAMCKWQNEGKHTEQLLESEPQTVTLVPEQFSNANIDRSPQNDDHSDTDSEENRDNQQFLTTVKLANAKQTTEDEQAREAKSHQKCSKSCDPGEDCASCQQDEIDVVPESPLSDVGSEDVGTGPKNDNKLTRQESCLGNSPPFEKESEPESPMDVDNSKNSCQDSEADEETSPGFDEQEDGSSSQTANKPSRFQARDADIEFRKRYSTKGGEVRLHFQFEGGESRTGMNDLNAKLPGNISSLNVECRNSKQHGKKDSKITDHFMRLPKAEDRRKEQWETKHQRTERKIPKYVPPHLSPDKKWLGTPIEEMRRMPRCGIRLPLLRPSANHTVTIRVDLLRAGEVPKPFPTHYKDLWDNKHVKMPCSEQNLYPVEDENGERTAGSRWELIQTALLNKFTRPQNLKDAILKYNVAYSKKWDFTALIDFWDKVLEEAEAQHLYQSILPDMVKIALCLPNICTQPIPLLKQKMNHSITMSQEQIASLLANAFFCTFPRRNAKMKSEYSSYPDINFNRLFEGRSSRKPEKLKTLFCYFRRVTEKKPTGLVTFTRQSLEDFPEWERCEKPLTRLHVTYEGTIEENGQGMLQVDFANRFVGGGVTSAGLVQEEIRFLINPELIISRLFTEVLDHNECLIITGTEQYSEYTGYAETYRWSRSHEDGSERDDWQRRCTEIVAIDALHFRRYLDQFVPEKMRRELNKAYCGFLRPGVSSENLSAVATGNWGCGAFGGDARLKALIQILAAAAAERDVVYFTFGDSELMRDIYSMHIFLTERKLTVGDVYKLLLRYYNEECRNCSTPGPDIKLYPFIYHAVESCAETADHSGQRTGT

As to `C=CCn1c(=O)n(-c2nnc(C(F)F)s2)c2cc(S(=O)(=O)NC3(C#N)CC3)cc(N3CCN(C(=O)C4(C)CCCO4)CC3)c21` (centres unmarked) [Compound 076J], the IC50 at PARG amounted to 7 nM; with KURAMOCHI cells it was 9 nM.

Take `C[C@H]1CN(c2cc(S(=O)(=O)NC3(C#N)CC3)cc3c2nc(OC2CC2)n3-c2nnc(C(F)F)s2)C[C@H](C)N1` [Compound 077A]: the IC50 is 10.4 nM at PARG and 11 nM in the assay on KURAMOCHI cells.

Consider `C[C@H]1CN(c2cc(S(=O)(=O)NC3(C)CC3)cc3c2nc(C2CCCO2)n3-c2nnc(C(F)F)s2)C[C@H](C)N1` (some centres unmarked) [Compound 077B], for which the figures for the 50% inhibitory concentration (IC50) on PARG and in the assay on KURAMOCHI cells were 3.4 nM and 7 nM, respectively.

With `C[C@H]1CN(c2cc(S(=O)(=O)NC3(C)CC3)cc3c2nc(OC2CC2)n3-c2nnc(C(F)F)s2)C[C@H](C)N1` [Compound 077F], the IC50 at PARG is 9.2 nM; in the assay with KURAMOCHI cells, 9 nM.

For `CC(C)Oc1nc2c(N3C[C@H](C)N[C@@H](C)C3)cc(S(=O)(=O)NC3(C)CC3)cc2n1-c1nnc(C(F)F)s1` [Compound 077G], the IC50 was 1.6 nM on PARG and 2 nM with KURAMOCHI cells.

For the molecule `CC(C)Oc1nc2c(N3C[C@H](C)N[C@@H](C)C3)cc(S(=O)(=O)NC3(C#N)CC3)cc2n1-c1nnc(C(F)F)s1` [Compound 077H], the IC50 worked out at 3 nM at PARG and 5 nM with KURAMOCHI cells.

Regarding `C[C@H]1CN(c2cc(S(=O)(=O)NC3(C)CC3)cc3c2nc(C2COCCO2)n3-c2nnc(C(F)F)s2)C[C@H](C)N1` (some centres unmarked) [Compound 077N], the IC50 stood at 3.4 nM at PARG and 8 nM in the assay with KURAMOCHI cells.

As for `COCc1nc2c(N3C[C@H](C)N[C@@H](C)C3)cc(S(=O)(=O)NC3(C)CC3)cc2n1-c1nnc(C(F)F)s1` [Compound 077T], the IC50 stood at 27.8 nM at PARG and 35 nM with KURAMOCHI cells.

Take `C[C@H]1CN(c2cc(S(=O)(=O)NC3(C)CC3)cc3c2nc(N2CCOCC2)n3-c2nnc(C(F)F)s2)C[C@H](C)N1` [Compound 077V]: the IC50 at PARG was 21.7 nM; with KURAMOCHI cells, 37 nM.

Consider `C[C@H]1CN(c2cc(S(=O)(=O)NC3(C)CC3)cc3c2nc(C2CCCCO2)n3-c2nnc(C(F)F)s2)C[C@H](C)N1` (some centres unmarked) [Compound 077X], for which the IC50 was 21.3 nM on PARG and 16 nM with KURAMOCHI cells.

Regarding `C[C@H]1CN(c2cc(S(=O)(=O)NC3(C)CC3)cc3c2nc(C2CC(F)(F)CO2)n3-c2nnc(C(F)F)s2)C[C@H](C)N1` (some centres unmarked) [Compound 079J], the values for the IC50 on PARG and with KURAMOCHI cells were 1.8 nM and 4 nM, respectively.

In the case of `C[C@H]1CN(c2cc(S(=O)(=O)NC3(C)CC3)cc3c2nc(C2CC4(CC4)CO2)n3-c2nnc(C(F)F)s2)C[C@H](C)N1` (some centres unmarked) [Compound 079M], the results for the IC50 on PARG and in the assay on KURAMOCHI cells were 3.8 nM and 15 nM, respectively.

On to `C[C@H]1CN(c2cc(S(=O)(=O)NC3(C)CC3)cn3c(-c4nnc(C(F)F)s4)c([C@H]4CCCO4)nc23)C[C@H](C)N1` [Compound 080B1], for which the IC50 on PARG was found to be 2.2 nM; in the assay with KURAMOCHI cells, 4 nM.

For `C[C@H]1CN(c2cc(S(=O)(=O)NC3(C)CC3)cn3c(-c4nnc(C(F)F)s4)c(C4CCCO4)nc23)C[C@H](C)N1` (some centres unmarked) [Compound 080B], the results for the IC50 at PARG and with KURAMOCHI cells were 0.5 nM and 1 nM, respectively.

Take `C[C@H]1CN(c2cc(S(=O)(=O)NC3(C)CC3)cn3c(-c4nnc(C(F)F)s4)cnc23)C[C@H](C)N1` [Compound 080J]: the IC50 at PARG is 2.4 nM; in the assay with KURAMOCHI cells, 5 nM.

As for `C[C@H]1CN(c2cc(S(=O)(=O)NC3(C)CC3)cn3c(-c4nnc(C(F)F)s4)c(Cl)nc23)C[C@H](C)N1` [Compound 080K], the figures for the IC50 on PARG and in the assay on KURAMOCHI cells were 1.7 nM and 4 nM, respectively.

For the molecule `C[C@H]1CN(c2cc(S(=O)(=O)NC3(C)CC3)cc3c(-c4nnc(C(F)F)s4)c([C@H]4CCCO4)nn23)C[C@H](C)N1` [Compound 083A1], the IC50 at PARG was found to be 14.6 nM; in the assay with KURAMOCHI cells it was 25 nM.

Turning to `C[C@H]1CN(c2cc(S(=O)(=O)NC3(C)CC3)cc3c(-c4nnc(C(F)F)s4)c([C@@H]4CCCO4)nn23)C[C@H](C)N1` [Compound 083A2], the values for the IC50 at PARG and in the assay on KURAMOCHI cells were 1 nM and 3 nM, respectively.

Turning to `C[C@H]1CN(c2cc(S(=O)(=O)NC3(C)CC3)cc3c(-c4nnc(C(F)F)s4)c(C4CCCO4)nn23)C[C@H](C)N1` (some centres unmarked) [Compound 083A], the IC50 amounted to 2.1 nM on PARG and 4 nM in the assay on KURAMOCHI cells.

With `COC(C)(C)c1nc2n(-c3nnc(C(F)F)s3)c3cc(S(=O)(=O)NC4(C)CC4)cc(N4C[C@H](C)N[C@@H](C)C4)c3n2n1` [Compound 084H], the IC50 on PARG stood at 0.7 nM; with KURAMOCHI cells, 3 nM.

On to `C[C@H]1CN(c2cc(S(=O)(=O)NC3(C)CC3)cc3c2n2nc(C(=O)NC4CC4)nc2n3-c2nnc(C(F)F)s2)C[C@H](C)N1` [Compound 084J], for which the IC50 was determined as 0.7 nM on PARG and 16 nM in the assay on KURAMOCHI cells.

In the case of `C[C@H]1CN(c2cc(S(=O)(=O)NC3(C)CC3)cc3c2n2nc(C(=O)NC4(C)CC4)nc2n3-c2nnc(C(F)F)s2)C[C@H](C)N1` [Compound 084K], the IC50 at PARG was determined as 0.7 nM; in the assay with KURAMOCHI cells it was 9 nM.

With `C[C@H]1CN(c2cc(S(=O)(=O)NC3(C)CC3)cc3c2n2nc(NC(=O)C4CC4)nc2n3-c2nnc(C(F)F)s2)C[C@H](C)N1` [Compound 084L], the results for the IC50 at PARG and in the assay with KURAMOCHI cells were 1.1 nM and 29 nM, respectively.

In the case of `C[C@H]1CN(c2cc(S(=O)(=O)NC3(C)CC3)cc3c2n2nc(N4CCCC4=O)nc2n3-c2nnc(C(F)F)s2)C[C@H](C)N1` [Compound 084M], the IC50 on PARG is 0.8 nM; in the assay on KURAMOCHI cells, 9 nM.

Consider `CC(C)C(=O)N1CCN(c2cc(S(=O)(=O)NC3(C)CC3)cc3c2[nH]c(=O)n3-c2nnc(C(F)F)s2)CC1` [Compound A002], for which the IC50 at PARG turned out to be 16.4 nM; in the assay on KURAMOCHI cells, 86 nM.

In the case of `CC(C)C(=O)N1CCN(c2cc(S(=O)(=O)NC3(C)CC3)cc3c2n(C)c(=O)n3-c2nnc(C(F)F)s2)CC1` [Compound A003], the IC50 came out at 5.4 nM on PARG and 13 nM in the assay with KURAMOCHI cells.

With `CN(C)C(=O)N1CCN(c2cc(S(=O)(=O)NC3(C)CC3)cc3c2[nH]c(=O)n3-c2nnc(C(F)F)s2)CC1` [Compound A004], the IC50 stood at 10.7 nM at PARG and 80 nM in the assay with KURAMOCHI cells.

Take `Cn1c(=O)n(-c2nnc(C(F)F)s2)c2cc(S(=O)(=O)NC3(C)CC3)cc(N3CCNCC3)c21` [Compound A005]: the IC50 was 30.4 nM on PARG and 45 nM with KURAMOCHI cells.

Turning to `CN(C)C(=O)N1CCN(c2cc(S(=O)(=O)NC3(C)CC3)cc3c2n(C)c(=O)n3-c2nnc(C(F)F)s2)CC1` [Compound A006], the IC50 at PARG stood at 3.7 nM; in the assay on KURAMOCHI cells, 8 nM.

On to `CN(C)C(=O)N1CCN(c2cc(S(=O)(=O)NC3(C#N)CC3)cc3c2n(C)c(=O)n3-c2nnc(C(F)F)s2)CC1` [Compound A013], for which the IC50 on PARG came to 2.9 nM; with KURAMOCHI cells it was 13 nM.

For the molecule `CC(C)C(=O)N1CCN(c2cc(S(=O)(=O)NC3(C#N)CC3)cc3c2n(C)c(=O)n3-c2nnc(C(F)F)s2)CC1` [Compound A014], the IC50 on PARG turned out to be 12.3 nM; with KURAMOCHI cells it was 37 nM.

`CC(C)n1c(=O)n(-c2nnc(C(F)F)s2)c2cc(S(=O)(=O)NC3(C)CC3)cc(N3CCN(C(=O)N(C)C)CC3)c21` [Compound A018]: the figures for the IC50 at PARG and with KURAMOCHI cells were 34.1 nM and 7 nM, respectively.

As for `CC(C)C(=O)N1CCN(c2cc(S(=O)(=O)NC3(C)CC3)cc3c2n(C(C)C)c(=O)n3-c2nnc(C(F)F)s2)CC1` [Compound A019], the IC50 worked out at 18.1 nM on PARG and 16 nM in the assay on KURAMOCHI cells.

`CC(C)S(=O)(=O)N1CCN(c2cc(S(=O)(=O)NC3(C)CC3)cc3c2n(C)c(=O)n3-c2nnc(C(F)F)s2)CC1` [Compound A023]: the IC50 was 1.5 nM on PARG and 4 nM with KURAMOCHI cells.

In the case of `Cn1c(=O)n(-c2nnc(C(F)F)s2)c2cc(S(=O)(=O)NC3(C)CC3)cc(N3CCN(C(=O)N4CCCC4)CC3)c21` [Compound A027], the half-maximal inhibitory concentration (IC50) at PARG turned out to be 3.8 nM; in the assay on KURAMOCHI cells it was 5 nM.

For `COC(=O)N1CCN(c2cc(S(=O)(=O)NC3(C)CC3)cc3c2n(C)c(=O)n3-c2nnc(C(F)F)s2)CC1` [Compound A028], the values for the IC50 at PARG and in the assay with KURAMOCHI cells were 19 nM and 48 nM, respectively.

With `Cn1c(=O)n(-c2nnc(C(F)F)s2)c2cc(S(=O)(=O)NC3(C)CC3)cc(N3CCN(C(=O)C(C)(C)F)CC3)c21` [Compound A029], the IC50 on PARG stood at 3 nM; in the assay with KURAMOCHI cells it was 8 nM.

As to `Cn1c(=O)n(-c2nnc(C(F)F)s2)c2cc(S(=O)(=O)NC3(C)CC3)cc(N3CCN(C(=O)C(C)(C)O)CC3)c21` [Compound A030], the IC50 at PARG came out at 18.2 nM; in the assay with KURAMOCHI cells, 10 nM.

For the molecule `Cn1c(=O)n(-c2nnc(C(F)F)s2)c2cc(S(=O)(=O)NC3(CF)CC3)cc(N3CCNCC3)c21` [Compound A031], the IC50 came out at 35.2 nM at PARG and 63 nM with KURAMOCHI cells.

Take `CN(C)C(=O)N1CCN(c2cc(S(=O)(=O)NC3(CF)CC3)cc3c2n(C)c(=O)n3-c2nnc(C(F)F)s2)CC1` [Compound A032]: the results for the IC50 at PARG and with KURAMOCHI cells were 2.4 nM and 5 nM, respectively.

On to `CC(C)C(=O)N1CCN(c2cc(S(=O)(=O)NC3(CF)CC3)cc3c2n(C)c(=O)n3-c2nnc(C(F)F)s2)CC1` [Compound A033], for which the IC50 came out at 4 nM at PARG and 9 nM in the assay on KURAMOCHI cells.

As to `CN(C)C(=O)N1CCN(c2cc(S(=O)(=O)NC3(C)COC3)cc3c2n(C)c(=O)n3-c2nnc(C(F)F)s2)CC1` [Compound A036], the IC50 at PARG came to 6.8 nM; in the assay on KURAMOCHI cells it was 12 nM.

Regarding `CC(C)C(=O)N1CCN(c2cc(S(=O)(=O)NC3(C)COC3)cc3c2n(C)c(=O)n3-c2nnc(C(F)F)s2)CC1` [Compound A037], the IC50 came to 6.8 nM at PARG and 14 nM with KURAMOCHI cells.
